One experiment relates to SFA endothelial function. Kind of experiment: Superficial femoral artery flow mediated dilation (SFA FMD) during 3 hours of sitting, SIT vs VIT trial. Type of experiment: in vivo, human. The following applies: oral Vitamin C 1 g at 30 minutes and 500 mg at 1 hour 30 minutes, different at 1 hour (p=0.009), 2 hours (p=0.016), 3 hours (p=0.004). How it is done:
Two screening visits and two sitting trials in random sequence, one with uninterrupted sitting (SIT) and one with oral Vitamin C during the sitting time (VIT) were conducted. Specifically, SIT represents prolonged 3 hours of sitting. VIT represents prolonged sitting with intermittent vitamin C. Flow mediated dilation (FMD) was measured at 0, 1, 2 and 3 hours. Subjects ingested 1 g vitamin C at 30 minutes and 500 mg at 1 hour 30 minutes. Subjects arrived at the laboratory after an overnight fast of at least 6 hours between 7:00 AM and 9:00 AM. The arrival time was matched for both trials within each subject. […] Subjects were allowed to move their arms, not vigorously, for example to use a computer or do light reading during the non-testing periods of the trials. Arm movement was not quantified. The flow mediated dilation (FMD) and other vascular function parameters were measured at baseline, 1 hour, 2 hours and 3 hours into testing. […] Endothelial function was measured using SFA FMD, measured in accordance with current guidelines. […] Diameter images and Doppler measurements of blood velocity were continuously recorded for 45 seconds at baseline prior to cuff inflation. […] Ultrasound images were continuously recorded at 5 frames•s^-1 with […] […] Blood velocities were determined using the systems and methods described herein after automated selection of the blood flow envelop throughout the measurement. […]

Experiment [1] concerns superficial femoral artery (SFA). As to the kind of experiment: Shear rates in the SFA by Doppler ultrasound during 3 hours of sitting with oral Vitamin C (VIT trial). The following applies: Mean ± SD. Type of experiment: in vivo, human. How it is done:
Two screening visits and two sitting trials in random sequence, one with uninterrupted sitting (SIT) and one with oral Vitamin C during the sitting time (VIT) were conducted. Specifically, SIT represents prolonged 3 hours of sitting. VIT represents prolonged sitting with intermittent vitamin C. Flow mediated dilation (FMD) was measured at 0, 1, 2 and 3 hours. Subjects ingested 1 g vitamin C at 30 minutes and 500 mg at 1 hour 30 minutes. Subjects arrived at the laboratory after an overnight fast of at least 6 hours between 7:00 AM and 9:00 AM. The arrival time was matched for both trials within each subject. Subjects were also asked to refrain from any caffeinated drink for at least 8 hours before reporting to the lab. Upon their arrival in the lab, all subjects self-reported adhering to the fasting schedule. During both trials, the subjects remained seated for 3 hours without moving their legs or feet. Subjects were allowed to move their arms, not vigorously, for example to use a computer or do light reading during the non-testing periods of the trials. Arm movement was not quantified. The flow mediated dilation (FMD) and other vascular function parameters were measured at baseline, 1 hour, 2 hours and 3 hours into testing. The two trials were performed in random order, separated by a minimum of two and a maximum of seven days. The SIT trial was uninterrupted sitting for 3 hours, whereas in the VIT trial, subjects ingested two Vitamin C tablets; 1 g at 30 minutes and 500 mg at 1 hour 30 minutes during the sitting interval. In addition to imaging the arterial dimensions, Doppler ultrasound was used to concurrently measure SFA blood velocity. Doppler flow signals were corrected at an insonation angle of 60°, and the sample volume was placed in the middle of the artery. Diameter images and Doppler measurements of blood velocity were continuously recorded for 45 seconds at baseline prior to cuff inflation. The automatic blood pressure cuff was then rapidly inflated to 250 mmHg and maintained for 5 minutes until cuff deflation. Diameter and blood velocity recordings resumed prior to cuff deflation and continued for 5 minutes after deflation. Ultrasound images were continuously recorded at 5 frames•s^-1 with […] (TechSmith, Okemos, Mich., USA), and stored as .avi files. This procedure was repeated hourly across the sitting intervals. Off-line analysis of diameters was performed using automated edge-detection software (Brachial Analyzer, Medical Imaging Applications LLC, Coralville, IA, USA). This software allows the technician to determine a region of interest where the near and far vessel walls are most clear. The vessel wall borders are then detected using an optimal graph search-based segmentation that uses a combination of pixel density and image gradient as an objective function. All analyzed images were reviewed by the technician and edited when needed to ensure that diameter measurements were always determined from the intima-lumen interface at the near and far vessel wall. Blood velocities were determined using the systems and methods described herein after automated selection of the blood flow envelop throughout the measurement. The velocity-time integral was used to calculate the mean blood velocity for each cardiac cycle. Diameters and blood velocities were not ECG-gated. The peak dilation after cuff deflation was determined using the highest 3-s moving average and was presented as a percentage change from baseline diameter (FMD %). SFA shear rate was used as an estimate of arterial shear stress and was calculated for each FMD % at baseline and during the post occlusion period using the following formula: 4•Vm•D-1 where Vm is mean blood velocity (cm• s-1) and D is mean arterial diameter (cm). All measurements and analysis were performed by a single researcher (ST) who was blinded to the participant identity and treatment condition for each image file.

Where [2] appears, read: 1 hr, oral Vitamin C 1 g at 30 minutes.
Where [3] appears, read: 2 hr, oral Vitamin C 1 g at 30 minutes and 500 mg at 1 hour 30 minutes.
Setting [4] is: 3 hr, oral Vitamin C 1 g at 30 minutes and 500 mg at 1 hour 30 minutes.
Where [5] appears, read: Baseline (0 hr), before Vitamin C ingestion, male subjects, sitting.

Entries after “also recorded” stand apart in the source; their conditions may differ.

As for `O=C1O[C@H]([C@@H](O)CO)C(O)=C1O` [Vitamin C], the figures for the “Effect on decline of SFA FMD % during sitting” value in the experiment on SFA endothelial function and in the experiment with SFA endothelial function (listed as VIT) were “prevented the decline in SFA FMD; also recorded: prevented the decline in endothelial function” and “preventing the decline of FMD”, respectively. In addition, the “Antegrade shear rate in the SFA” value was determined as 8.58 ± 6.91 s⁻¹ in experiment [1] (setting [2]), 6.56 ± 3.08 s⁻¹ in experiment [1] (setting [3]), 6.22 ± 2.39 s⁻¹ in experiment [1] (setting [4]) and 7.03 ± 3.5 s⁻¹ in experiment [1] (setting [5]). Besides, the “Mean shear rate in the SFA” value in experiment [1] (setting [2]) was 4.44 ± 4.23 s⁻¹; in experiment [1] (setting [3]), 2.99 ± 2.6 s⁻¹; in experiment [1] (setting [4]), 3.17 ± 2.14 s⁻¹; in experiment [1] (setting [5]) it was 5.17 ± 7.54 s⁻¹.

The record behind these values is patent US9750481B2, “System and method for analyzing antegrade and retrograde blood flow” (Indiana University Research and Technology Corporation, priority 2014, dated 2017).
